Earlier results as cited in patent US8877808B2, “Protection against skin diseases by aurin tricarboxylic acid and its derivatives” (Aurin Biotech Inc., priority 2012, dated 2014).

Target: C9 binding to C5b678 (Homo sapiens, UniProt P02748)
Conditions: Lee et al. 2012a

C9 binding to C5b678, sequence (P02748 22-559): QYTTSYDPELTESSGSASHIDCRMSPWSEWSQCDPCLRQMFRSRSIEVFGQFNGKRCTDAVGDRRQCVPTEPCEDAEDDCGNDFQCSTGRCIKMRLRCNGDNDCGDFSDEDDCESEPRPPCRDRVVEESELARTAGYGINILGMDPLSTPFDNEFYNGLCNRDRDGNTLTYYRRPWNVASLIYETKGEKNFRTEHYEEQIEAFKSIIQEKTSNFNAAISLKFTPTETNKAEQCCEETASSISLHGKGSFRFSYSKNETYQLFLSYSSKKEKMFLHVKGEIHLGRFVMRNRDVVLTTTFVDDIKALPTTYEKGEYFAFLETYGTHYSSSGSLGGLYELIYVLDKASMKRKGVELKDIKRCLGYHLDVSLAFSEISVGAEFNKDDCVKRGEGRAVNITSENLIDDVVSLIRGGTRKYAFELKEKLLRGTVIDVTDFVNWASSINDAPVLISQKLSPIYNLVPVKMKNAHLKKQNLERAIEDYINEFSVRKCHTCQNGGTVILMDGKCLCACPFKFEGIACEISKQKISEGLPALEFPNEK

| Substance | block of classical pathway at C9 binding to C5b678, formation of the MAC (C5b-9) |
| --- | --- |
| aurin quadracarboxylic acid [AQA] | block classical pathway formation at the stage of C9 binding to C5b678 |
| aurin hexacarboxylic acid [AHA] | block classical pathway formation at the stage of C9 binding to C5b678 |
